Experimental data taken from patent US20230364084A1, “METHODS FOR PREVENTING OR TREATING CONDITIONS RELATED TO PIKFYVE ACTIVITY” (The Regents of the University of Michigan, priority 2020, published 2023).

Tests used:
Atg8 = assay: yeast autophagy detection (Atg8 immunoblot); format: cell-based; details: drug permeable yeast strain (prd5Δ), 3 μM, nitrogen deprivation
Procedure: The yeast strains used in this study were YAB499 (SEY6210, pho13Δ pho8Δ60, pdr5Δ::Kan). Protein extraction and immunoblot were performed as previously described^59. Antisera to Atg8 and Pgk1 (a generous gift from Dr. Jeremy Thorner, University of California, Berkeley) were used as previously described. Cells were treated with either 3 μM ESK981, 3 μM cabozantinib, or the equivalent amount of DMSO as control for the indicated times.

PIP5K1C = biological target: T1, PIP5K1C (Homo sapiens, UniProt O60331); assay: kinase dissociation constant analysis (KdELECT); format: binding; details: 11-point dose-response, duplicate
T1 construct: purchased DiscoveRX (KdELECT)
T1 sequence (O60331 whole entry): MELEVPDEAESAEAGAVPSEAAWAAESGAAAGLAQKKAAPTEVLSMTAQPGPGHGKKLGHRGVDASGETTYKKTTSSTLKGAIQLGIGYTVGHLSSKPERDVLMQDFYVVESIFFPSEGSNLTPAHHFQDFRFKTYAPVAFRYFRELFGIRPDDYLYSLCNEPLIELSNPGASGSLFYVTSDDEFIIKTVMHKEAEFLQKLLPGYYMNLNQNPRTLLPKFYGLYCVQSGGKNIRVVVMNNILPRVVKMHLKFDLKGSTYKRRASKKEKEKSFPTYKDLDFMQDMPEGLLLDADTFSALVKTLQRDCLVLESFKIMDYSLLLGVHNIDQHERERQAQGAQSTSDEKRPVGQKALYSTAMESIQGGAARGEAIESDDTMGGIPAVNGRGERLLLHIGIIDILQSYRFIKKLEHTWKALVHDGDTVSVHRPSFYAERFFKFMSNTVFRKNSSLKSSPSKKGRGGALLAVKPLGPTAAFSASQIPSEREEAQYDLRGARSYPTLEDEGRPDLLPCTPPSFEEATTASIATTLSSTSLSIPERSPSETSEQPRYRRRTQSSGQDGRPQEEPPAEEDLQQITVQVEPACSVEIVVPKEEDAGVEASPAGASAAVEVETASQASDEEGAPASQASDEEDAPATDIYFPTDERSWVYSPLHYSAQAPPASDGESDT
Procedure: Quantitative binding constants (Kd) of ESK981 to PIKfyve, PIP5K1A, PIP5K1C, and PIK3CA were generated using KdELECT® platform (DiscoveRX). An 11-point dose-response of ESK981 (0.05-3000 nM) was used, and the experiment was performed in duplicate. Detailed information is described on the DiscoveRX website (www.discoverx.com).

[1] = tested on: GFP-LC3 expressing DU145 cells; assay: GFP-LC3 puncta confocal imaging; format: cell-based, human
Procedure: For GFP-LC3 confocal imaging, GFP-LC3 expressing DU145 cells were seeded on coverslips overnight and treated with ESK981 at 300 nM for various time points. Coverslips were then fixed with 10% paraformaldehyde. Confocal images were taken using a Nikon A1 confocal microscope.

VCaP cells = assay: human cytokine array of conditioned medium; format: cell-based; details: VCaP conditioned media, 300 nM, 24 hours
Procedure: Cells were seeded in 6-well plates, and conditioned medium was collected after 24 hours of drug incubation. Cytokine expression was determined by proteome profiler mouse XL cytokine array (Cat No. ARY028, R&D System) or proteome profiler human XL cytokine array kit (Cat No. ARY022, R&D System) according to the manufacturer's instructions.

Myc-CaP cells = assay: long-term survival assay in Myc-CaP cells; format: cell-based, mouse
Procedure: Single cell suspensions were seeded into 96-well plates at a density of 1,000-30,000 cells per well. Long-term survival was determined after 14 days of drug incubation. Viable cells were fixed with 4% formaldehyde and subsequently stained with 1% crystal violet. IC50 was calculated using GraphPad Prism.

[2] = tested on: prostate cancer cell lines; assay: cell cycle analysis; format: cell-based, human
Procedure: Cells were seeded in 6-well plates and treated with various drugs for 72 hours. Single cells were fixed with 70% ethanol, stained with propidium iodine, and cell cycle was analyzed by flow cytometry.

[3] = tested on: LC3-II in prostate cancer cell lines; assay: LC3 lipidation western blot; format: cell-based, human
Procedure: Cell lysates were harvested in Pierce RIPA Lysis buffer (Thermo Scientific) containing protease inhibitor cocktail tablets (Roche) and phosphatase inhibitor cocktail (Millipore). Protein concentration was measured using the DC Protein Assay (Bio-Rad) to ensure an equal amount of protein was loaded onto a gel. The denatured lysates were separated on NuPage 4-12% Bis-Tris Midi Protein gels (Novex) and transferred to 0.45-μm PVDF transfer membrane (Immobilon) using a TransBlot Turbo dry transfer machine (Bio-Rad). The membrane was incubated in blocking buffer (5% non-fat dry milk, Tris-buffered saline with 0.1% Tween 20) for 1 hour at room temperature. The membrane was then incubated with the listed antibodies for 1 hour at room temperature, followed by overnight incubation at 4° C. Chemiluminescent detection using ECL Prime (Amersham) and HyBlot CL autoradiography film (Denville Scientific) was used to visualize the blots. Antibodies used in the immunoblotting assays were against ATG5 (Cat No. 12994S, Cell Signaling Technology), ATG7 (Cat No. 8558S, Cell Signaling Technology), ULK1 (Cat No. 8054S, Cell Signaling Technology), Beclin1 (Cat No. 4122S, Cell Signaling Technology), FIP200 (Cat No. 12436S, Cell Signaling Technology), LC3A/B (Cat No. 127415, Cell Signaling Technology), PIKfyve (Cat No. AF7885, R&D Systems), and GAPDH (Cat No. 3683S, Cell Signaling Technology).

[4] = tested on: castration-resistant VCaP tumors; assay: castration-resistant VCaP xenograft mouse model; format: in vivo; details: 30 or 60 mg/kg
Procedure: Four- to six-week old male CB17 severe combined immunodeficiency (SCID) mice were procured from the University of Michigan breeding colony. Subcutaneous tumors were established at both sides of the dorsal flank of mice. Tumors were measured at least biweekly using digital calipers following the formula (π/6) (L×W2), where L=length and W=width of the tumor. At the end of the studies, mice were sacrificed and tumors extracted and weighed. The University of Michigan University Committee on the Use and Care of Animals (UCUCA) approved all in vivo studies. For the VCaP castration-resistant tumor model, 3×10^6 VCaP cells were injected subcutaneously into the dorsal flank on both sides of the mice in serum-free medium with 50% Matrigel (BD Biosciences). Once tumors reached a palpable stage (˜200 mm^3), tumor-bearing mice were castrated. Once tumors grew back to the pre-castration size, mice were randomized and treated with either 30 mg/kg, 60 mg/kg ESK981, or vehicle (ORA-PLUS) by oral gavage 5 days per week. For the DU145 xenograft tumor model, 1×10^6 DU145 cells were injected subcutaneously into the dorsal flank on both sides of the mice in serum-free medium with 50% Matrigel. When tumors reached ˜100 mm^3, tumor-bearing mice were randomized and treated with 30 mg/kg ESK981 or vehicle (ORA-PLUS) by oral gavage 5 days per week.

[5] = tested on: MDA-PCa-146-12 AR-positive PDX; assay: MDA-PCa-146-12 patient-derived xenograft; format: in vivo, mouse; details: 30 mg/kg
Procedure: The University of Texas M.D. Anderson Cancer Center (MDACC) patient-derived xenografts (PDX) series has been previously described^62-64. PDXs were derived from men with CRPC undergoing palliative resections using described protocols^65,66. MDA-PCa-146-12 and 146-10 PDX were derived from a patient initially diagnosed with Gleason 3+4=7 prostate adenocarcinoma with an initial PSA of 10.7 ng/ml. […] PDXs were maintained in male SCID mice by surgically implanting 2 mm^3 tumors coated with 100% Matrigel to both flanks of mice. Once tumors reached 100-200 mm^3 in size, mice were randomized and divided into different treatment groups receiving either 30 mg/kg ESK981 or vehicle (ORA-PLUS) by oral gavage 5 days per week.

[6] = tested on: advanced, relapsed, or refractory solid tumors; details: cited from earlier work

For `CC(C)Cn1c2ccc(Nc3ncccn3)cc2c2c3c(c4c(c21)CCc1nn(C)cc1-4)C(=O)NC3` [ESK981, 13-isobutyl-4-methyl-10-(pyrimidin-2-ylamino)-1,2,4,7,8,13-hexahydro-6H-indazolo[5,4-a]pyrrolo[3,4-c]carbazol-6-one], the “lipidated Atg8” value (Atg8) was “increase in lipidated Atg8”, the Kd (PIP5K1C) was 210 nM and the “time to vacuole formation” value [1] was “only observed after four hours of treatment”. For the same molecule, the “time to LC3 puncta formation” value ([1]; 300 nM) was no more than 1 h, the “cytokines induced (array of 105 cytokines)” value (VCaP cells) was “significantly induced only CXCL10 and, to a lesser extent, CCL2” and the “efficacy compared with crizotinib and cabozantinib” value (Myc-CaP cells) was “most efficacious compound”. For the same molecule, the IC50 (Myc-CaP cells; Mus musculus, read-out: growth inhibitory IC50) was 35 nM, the cell cycle arrest ([2]; 72 hours, increasing concentrations) was “dose-dependent G2/M phase arrest” and the “G2/M arrest compared with other inhibitors” value ([2]; VCaP cells, ESK981 100 nM vs cabozantinib 5 μM, crizotinib 3 μM, enzalutamide 10 μM) was “greater G2/M arrest potential at a lower concentration”. For the same molecule, the “time to evidence of increase in LC3-II” value ([3]; VCaP cells, 300 nM) was “within three hours”, the “total level of LC3 lipidation” value ([3]; numerous prostate cancer cell lines, 24 hours, dose-dependent) was “increase in the total level of LC3 lipidation” and the “cell proliferation by Ki67 IHC” value ([4]; five days of treatment) was “dose-dependent reductions”. For the same molecule, the tumor weights ([4]; oral gavage) was “dose-dependent reductions”, the “tumor growth of VCaP xenografts” value ([4]; oral gavage, castrated SCID mice, vs vehicle) was “significant dose-dependent growth inhibiton” and the tumor weights [5] was “significant decreases in tumor weights”. For the same molecule, the tumor growth ([5]; oral gavage 5 days per week, SCID mice) was “Significant inhibition of tumor growth”, the “evaluable patients achieving stable disease” value ([6]; measured at ≥6 weeks of ESK981 treatment) was 51% and the “safety, pharmacokinetic and pharmacodynamic profiles” value ([6]; patients with advanced, relapsed, or refractory solid tumors) was “favorable safety, pharmacokinetic, and pharmacodynamic profiles”.
